Laboratory results taken from the OPERA property sets (Mansouri et al. 2018).

For `O=S1C=Cc2ccccc21` (stereo not given), which logP is on record?
Its logP is 1.01.

With `c1ccc2cc3sccc3cc2c1` as the molecule, how does the logP read?
Its logP is 4.5.

For `c1ccc2c(c1)ccc1sccc12`, which logP is on record?
The logP was 4.41.

For `c1ccc2c(c1)ccc1sc3ccccc3c12`, which logP is on record?
Its logP is 5.19.

With `Cc1cccc2sccc12` as the molecule, how does the logP read?
The logP was 3.57.

With `c1ccc2c(c1)ccc1c3ccsc3ccc21` as the molecule, how does the logP read?
Its logP is 5.35.

With `c1ccc2c(c1)ccc1ccsc12` as the molecule, how does the logP read?
Its logP is 4.55.

Which logP does the source give for `c1cc2ccc3cccc4sc(c1)c2c34` here?
The logP was 4.95.

With `Cc1cc2ccccc2s1` as the molecule, how does the logP read?
The logP was 3.71.

With `Cc1cccc2ccsc12` as the molecule, how does the logP read?
Its logP is 3.85.
